The source of these data is patent US20130183239A1, “ISOTOPIC CARBON CHOLINE ANALOGS” (IMPERIAL COLLEGE, priority 2010, published 2013).

Read-outs that look alike come from different tables or passages of the source.

The conditions of data set [1]: mouse, in vivo. As for the experimental part: (§1) Radiolabeled metabolites from plasma and tissues were quantified using a method adapted from Smith G, Zhao Y, Leyton J, et al. Radiosynthesis and pre-clinical evaluation of [(18)F]fluoro-[1,2-(2)H(4)]choline. Nucl Med Biol. 2011; 38:39-51. Briefly, tumor-bearing mice under terminal anaesthesia were administered a bolus i.v. injection of one of the following radiotracers: ^11C-choline, ^11C-D4-choline (˜18.5 MBq) or ^18F-D4-choline (˜3.7 MBq), and sacrificed by exsanguination via cardiac puncture at 2, 15, 30 or 60 min post radiotracer injection. For automated radiosynthesis methodology, see Example 22. Tumor, kidney and liver samples were immediately snap-frozen in liquid nitrogen. Aliquots of heparinized blood were rapidly centrifuged (14000 g, 5 min, 4° C.) to obtain plasma. Plasma samples were subsequently snap-frozen in liquid nitrogen and kept on dry ice prior to analysis.
(§2) For analysis, samples were thawed and kept at 4° C. immediately before use. To ice cold plasma (200 μl) was added ice cold methanol (1.5 mL) and the resulting suspension centrifuged (14000 g; 4° C.; 3 min). The supernatant was then decanted and evaporated to dryness on a rotary evaporator (bath temperature, 40° C.), then resuspended in HPLC mobile phase (Solvent A: acetonitrile/water/ethanol/acetic acid/1.0 M ammonium acetate/0.1 M sodium phosphate [800/127/68/2/3/10]; 1.1 mL). Samples were filtered through a hydrophilic syringe filter (0.2 μm filter; Millex PTFE filter, Millipore, Mass., USA) and the sample (˜1 mL) then injected via a 1 mL sample loop onto the HPLC for analysis. Tissues were homogenized in ice-cold methanol (1.5 mL) using an Ultra-Turrax T-25 homogenizer (IKA Werke GmbH and Co. KG, Staufen, Germany) and subsequently treated as per plasma samples.
(§3) Samples were analyzed on an Agilent 1100 series HPLC system (Agilent Technologies, Santa Clara, Calif., USA), configured as described above, using the method of Leyton J, Smith G, Zhao Y, et al. [18F]fluoromethyl-[1, 2-2H4]-choline: a novel radiotracer for imaging choline metabolism in tumors by positron emission tomography. Cancer Res. 2009; 69:7721-7728. A μBondapak C18 HPLC column (Waters, Milford, Mass., USA; […]), stationary phase and a mobile phase comprising of Solvent A (vide supra) and Solvent B (acetonitrile/water/ethanol/acetic acid/1.0 M ammonium acetate/0.1 M sodium phosphate (400/400/68/44/88/10)), delivered at a flow rate of 3 mL/min were used for analyte separation. The gradient was set as follows: 0% B for 5 min; 0% to 100% B in 10 min; 100% B for 0.5 min; 100% to 0% B in 2 min; 0% B for 2.5 min.
(§4) A 2-tissue irreversible compartmental model was employed to fit the TACs, as has been previously established for ^11C-choline (Kenny L M, Contractor K B, Hinz R, et al. Reproducibility of [11C]choline-positron emission tomography and effect of trastuzumab. Clin Cancer Res. Aug. 15 2010; 16(16):4236-4245; and Sutinen E, Nurmi M, Roivainen A, et al. Kinetics of [(11)C]choline uptake in prostate cancer: a PET study. Eur J Nucl Med Mol. Imaging. March 2004; 31(3):317-324). An estimate of the whole blood TAC (wbTAC(t)) was derived from the PET image itself, as described above. […] Therefore it was fitted with a sum of 3 exponentials from the peak on and the fitted function was used as input function in the kinetic modeling (after metabolite correction, see below). […] The pf values were fitted to a sum of two exponentials with the constraint pf(t=0)=1 to obtain the function pf(t).

For data set [2] the following is noted: mouse, in vivo. The procedure: ^11C-choline, ^11C-D4-choline (˜18.5 MBq) and ^18F-D4-choline (˜3.7 MBq) were each injected via the tail vein of anaesthetized BALB/c nude mice. The mice were maintained under anesthesia and sacrificed by exsanguination via cardiac puncture at 2, 15, 30 or 60 min post radiotracer injection to obtain blood, plasma, heart, lung, liver, kidney and muscle. Tissue radioactivity was determined on a gamma counter (Cobra II Auto-Gamma counter, Packard Biosciences Co, Pangbourne, UK) and decay corrected. Data were expressed as percent injected dose per gram of tissue.
Time course biodistribution was performed in non-tumor-bearing male nude mice with ^11C-choline, ^11C-D4-choline and ^18F-D4-choline tracers.
The source holds these as a separate data set.

Data set [3] has as its system HCT116 tumors. To be noted: HCT116 tumors, dynamic PET. As for the experimental part:
Dynamic ^11C-choline, ^11C-D4-choline and ^18F-D4-choline imaging scans were carried out on a dedicated small animal PET scanner (Siemens Inveon PET module, Siemens Medical Solutions USA, Inc., Malvem, Pa., USA) following a bolus i.v. injection in tumor-bearing mice of either ˜3.7 MBq for ^18F studies, or ˜18.5 MBq for ^11C. Dynamic scans were acquired in list mode format over 60 min. The acquired data were then sorted into 0.5 mm sinogram bins and 19 time frames for image reconstruction (4×15 s, 4×60 s, and 11×300 s), which was done by filtered back projection. For input function analysis, data were sorted into 25 time frames for image reconstruction (8×5 s, 1×20 s, 4×40 s, 1×80 s, and 11×300 s). The Siemens Inveon Research Workplace software was used for visualization of radiotracer uptake in the tumor; 30 to 60 min cumulative images of the dynamic data were employed to define 3-dimensional (3D) regions of interest (ROIs). Arterial input function was estimated as follows: a single voxel 3D ROI was manually drawn in the center of the heart cavity using 2 to 5 min cumulative images. Care was taken to minimize ROI overlap with the myocardium. The count densities were averaged for all ROIs at each time point to obtain a time versus radioactivity curve (TAC). Tumor TACs were normalized to injected dose, measured by a VDC-304 dose calibrator (Veenstra Instruments, Joure, The Netherlands), and expressed as percentage injected dose per mL tissue. The area under the TAC, calculated as the integral of % ID/mL from 0-60 min, and the normalized uptake of radiotracer at 60 min (% ID/mL60) were also used for comparisons.
as §4, with “pf(t). The parent whole blood TAC wbTACPAR(t) was then computed by multiplying wbTAC(t) and pf(t) and used as input function to estimate the parameters K1 (mL/cm^3/min), k2 (1/min), k3 (1/min) and Vb (unitless). The steady state net irreversible uptake rate constant Ki (mL/cm^3/min) was calculated from the estimated microparameters as K1k3/(k2+k3).” for “pf(t).”

Data set [4] has as its system HCT116 tumors. Conditions: mouse, in vivo. As for the experimental part:
as §1, §2, §3
^11C-choline, ^11C-D4-choline and ^18F-D4-choline metabolism were measured in HCT116 tumors (FIG. 22).

In data set [5] the test system is human melanoma (A375), prostate (PC3-M) and colon (HCT116) cancer cell lines. The data set can be described thus: In vitro 18F-D4-choline uptake in cancer cell lines. It counts as cell-based. To be noted: hemicholinium-3 5 mM, 18F-D4-choline uptake, all three cell lines. The procedure: Uptake was measured in vehicle-treated (closed symbols) and hemicholinium-3-treated cells (5 mM; open symbols). Mean values+SEM are shown (n=3). Insert: representative western blot of choline kinase-α expression in the three cell lines. Actin was used as a loading control. Abbreviations: CKα, choline kinase alpha.
Cells (5×10^5) were plated into 6-well plates the night prior to analysis. On the day of the experiment, fresh growth medium, containing 40 μCi ^18F-D4-choline, was added to individual wells. Cell uptake was measured following incubation at 37° C. in a humidified atmosphere of 5% CO2 for 60 min. Plates were subsequently placed on ice, washed 3 times with ice-cold PBS and lysed in RIPA buffer (Thermo Fisher Scientific Inc., Rockford, Ill., USA; 1 mL, 10 min). […] Aliquots were snap-frozen and used for protein determination following radioactive decay using a BCA 96-well plate assay (Thermo Fisher Scientific Inc., Rockford, Ill., USA). Data were expressed as percent of total radioactivity per mg protein. For hemicholinium-3 treatment (5 mM; Sigma-Aldrich), cells were incubated with the compound 30 min prior to addition of radioactivity and for the duration of the uptake time course. […]

Take `[2H]C([2H])(O)C([2H])([2H])[N+](C)(C)[11CH3]` [^11C-D4-choline, ^11C-[1,2-^2H4]choline]: the “liver radioactivity as betaine” value in data set [1] is given as 24.5±2.1%. Besides, in data set [2], the “increase in kidney retention compared to 11C-choline” value was 1.8 fold and the urinary excretion result is recorded as “trend towards increased urinary excretion”. Also, the “tumor tracer kinetics between 30 and 60 min” value in the data set on HCT116 tumors [3] is given as “Slow wash-out of activity”. Further, in the data set on HCT116 tumors [4], the “tumor betaine-to-phosphocholine metabolite ratio increase compared to 18F-D4-choline” value is given as 259% and the “tumor radioactivity corresponding to phosphocholine” value came to 43.8±1.5%.

As to `C[N+](C)([11CH3])CCO` [^11C-choline, reference compound], in data set [1] (BALB/c nude, 2 min), the “liver radioactivity as betaine” value is given as 49.2±7.7% and the “plasma radioactivity in the form of betaine” value amounted to 12.1±2.6%. Besides, the “plasma radioactivity in the form of betaine” value in data set [1] (BALB/c nude, 15 min) is listed as 78.6±4.4%. Moreover, the “tumor tracer kinetics between 30 and 60 min” value with HCT116 tumors [3] was “gradual accumulation”. Moreover, the “tumor betaine-to-phosphocholine metabolite ratio increase compared to 18F-D4-choline” value with HCT116 tumors [4] (BALB/c nude) came to 388%. In the data set on HCT116 tumors [4] (BALB/c nude, 15 min), the “increase in the ratio of betaine:phophocholine in comparison to 18F-D4-choline” value was 388% and the “tumor radioactivity corresponding to phosphocholine” value is listed as 30.5±4.0%. Moreover, in the data set on HCT116 tumors [4] (BALB/c nude, 60 min), the “increase in the ratio of betaine:phophocholine in comparison to 18F-D4-choline” value came to 230% and the tumor betaine radioactivity stood at 28.1±2.9%.

`C[N+]1(C)CCOC(O)(c2ccc(-c3ccc(C4(O)C[N+](C)(C)CCO4)cc3)cc2)C1.[Br-].[Br-]` (stereo not shown) [hemicholinium-3, reference compound]: the “decrease in intracellular tracer radioactivity” value in data set [5] is recorded as over 90%.
